Source: BindingDB's records for PubMed 20126400 (University of Oklahoma, 2010)
Values joined by “and” are separate entries in the source; they are usually repeats but may differ in a detail not shown here. Equal entries are not always repeated.

Columns and labels:
[1] = target: T1, 5-hydroxytryptamine receptor 1A (Homo sapiens, UniProt P08908); experiment: Ray2010 Assay 28
T1 sequence (P08908 whole entry): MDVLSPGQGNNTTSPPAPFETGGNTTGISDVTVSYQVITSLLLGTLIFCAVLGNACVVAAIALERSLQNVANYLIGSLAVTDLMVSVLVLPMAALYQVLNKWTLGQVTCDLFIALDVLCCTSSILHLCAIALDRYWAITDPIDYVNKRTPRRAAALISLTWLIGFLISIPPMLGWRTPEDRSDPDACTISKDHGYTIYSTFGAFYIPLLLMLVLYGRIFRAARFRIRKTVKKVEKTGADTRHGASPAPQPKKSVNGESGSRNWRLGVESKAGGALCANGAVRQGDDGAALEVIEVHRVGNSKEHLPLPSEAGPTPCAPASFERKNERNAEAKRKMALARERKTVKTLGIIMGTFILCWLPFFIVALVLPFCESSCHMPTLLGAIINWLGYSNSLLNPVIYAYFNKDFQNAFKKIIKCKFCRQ
Description: 8-oh-dpat cloned PDSP web; .

[2] = target: 5-hydroxytryptamine receptor 1D (UniProt F1MMU1); experiment: Ray2010 Assay 30
Description: 5-HT caudate .

D(3) dopamine receptor = D(3) dopamine receptor (Bos taurus, UniProt F1N454); experiment: Ray2010 Assay 33
Description: 7-OH-DPAT caudate .

D(4) dopamine receptor = target: T2, D(4) dopamine receptor (Homo sapiens, UniProt P21917); experiment: Ray2010 Assay 34
T2 sequence (P21917 whole entry): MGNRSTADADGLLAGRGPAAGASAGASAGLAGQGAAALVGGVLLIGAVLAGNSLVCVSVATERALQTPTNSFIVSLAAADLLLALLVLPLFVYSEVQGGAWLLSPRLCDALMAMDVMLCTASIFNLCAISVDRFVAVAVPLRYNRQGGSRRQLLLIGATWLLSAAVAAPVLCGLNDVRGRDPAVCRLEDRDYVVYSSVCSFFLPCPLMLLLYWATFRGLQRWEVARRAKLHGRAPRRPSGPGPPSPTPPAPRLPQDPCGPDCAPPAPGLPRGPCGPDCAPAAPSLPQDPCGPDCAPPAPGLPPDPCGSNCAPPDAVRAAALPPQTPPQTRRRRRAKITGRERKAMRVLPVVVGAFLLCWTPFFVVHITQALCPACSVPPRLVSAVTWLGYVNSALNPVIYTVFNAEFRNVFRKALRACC
Description: spiperone cloned .

[3] = target: Beta-1 adrenergic receptor (Rattus norvegicus, UniProt P18090); experiment: Ray2010 Assay 35
Description: dihydro-alprenalol HCL cortex .

[4] = target: Sigma non-opioid intracellular receptor 1 (Cavia porcellus, UniProt Q60492); experiment: Ray2010 Assay 39
Description: (+)-pentazocine brain Mach et al.1995.

[5] = target: Sigma non-opioid intracellular receptor 1 (UniProt Q58DH7); experiment: Ray2010 Assay 40
Description: (+)-pentazocine caudate .

[6] = target: Muscarinic acetylcholine receptor (UniProt F1N5C5); experiment: Ray2010 Assay 45
Description: pirenzepine hippocampus .

[7] = target: Muscarinic acetylcholine receptor M1 (Rattus norvegicus, UniProt P08482); experiment: Ray2010 Assay 47
Description: pirenzepine forebrain .

[8] = target: Muscarinic acetylcholine receptor M2 (Bos taurus, UniProt P41985); experiment: Ray2010 Assay 49
Description: QBN cortex .

[9] = target: Muscarinic acetylcholine receptor M2 (Rattus norvegicus, UniProt P10980); experiment: Ray2010 Assay 50
Description: AF-DX384 forebrain .

Mu-type opioid receptor = Mu-type opioid receptor (Bos taurus, UniProt P79350); experiment: Ray2010 Assay 55
Description: DAGO cortex .

[10] = target: T3, Glutamate receptor ionotropic, NMDA 2D (Rattus norvegicus, UniProt Q62645); experiment: Ray2010 Assay 62
Description: MK-801 hippocampus .

[11] = target: T3, Glutamate receptor ionotropic, NMDA 2D; experiment: Ray2010 Assay 64
Description: MK-801 Thalamus + hypothalamus .

[12] = target: T3, Glutamate receptor ionotropic, NMDA 2D; experiment: Ray2010 Assay 65
Description: MK-801 spinal cord .

[13] = target: T3, Glutamate receptor ionotropic, NMDA 2D; experiment: Ray2010 Assay 66
Description: MK-801 midbrain .

[14] = target: T3, Glutamate receptor ionotropic, NMDA 2D; experiment: Ray2010 Assay 67
Description: MK-801 cerebellum .

[15] = target: T3, Glutamate receptor ionotropic, NMDA 2D; experiment: Ray2010 Assay 68
Description: MK-801 basal forebrain .

[16] = target: T3, Glutamate receptor ionotropic, NMDA 2D; experiment: Ray2010 Assay 69
Description: dizocilpine forebrain .

[17] = target: Gamma-aminobutyric acid receptor subunit alpha-1 (Bos taurus, UniProt P08219); experiment: Ray2010 Assay 70
Description: muscimol cortex .

[18] = target: Alpha-2B adrenergic receptor (Homo sapiens, UniProt P18089); experiment: Ray2010 Assay 74
Description: (§1) Table S2 shows raw Ki data for the current study combined with data collected from the literature for the ten additional compounds.

[19] = target: Neuronal acetylcholine receptor subunit alpha-2/beta-4 (Homo sapiens, UniProt Q15822+P30926); experiment: Ray2010 Assay 74
Description: as §1

[20] = target: Neuronal acetylcholine receptor subunit alpha-4/beta-2 (Homo sapiens, UniProt P43681+P17787); experiment: Ray2010 Assay 74
Description: as §1

[21] = target: Neuronal acetylcholine receptor subunit alpha-4/beta-4 (Homo sapiens, UniProt P43681+P30926); experiment: Ray2010 Assay 74
Description: as §1

T3 sequence (Q62645 whole entry): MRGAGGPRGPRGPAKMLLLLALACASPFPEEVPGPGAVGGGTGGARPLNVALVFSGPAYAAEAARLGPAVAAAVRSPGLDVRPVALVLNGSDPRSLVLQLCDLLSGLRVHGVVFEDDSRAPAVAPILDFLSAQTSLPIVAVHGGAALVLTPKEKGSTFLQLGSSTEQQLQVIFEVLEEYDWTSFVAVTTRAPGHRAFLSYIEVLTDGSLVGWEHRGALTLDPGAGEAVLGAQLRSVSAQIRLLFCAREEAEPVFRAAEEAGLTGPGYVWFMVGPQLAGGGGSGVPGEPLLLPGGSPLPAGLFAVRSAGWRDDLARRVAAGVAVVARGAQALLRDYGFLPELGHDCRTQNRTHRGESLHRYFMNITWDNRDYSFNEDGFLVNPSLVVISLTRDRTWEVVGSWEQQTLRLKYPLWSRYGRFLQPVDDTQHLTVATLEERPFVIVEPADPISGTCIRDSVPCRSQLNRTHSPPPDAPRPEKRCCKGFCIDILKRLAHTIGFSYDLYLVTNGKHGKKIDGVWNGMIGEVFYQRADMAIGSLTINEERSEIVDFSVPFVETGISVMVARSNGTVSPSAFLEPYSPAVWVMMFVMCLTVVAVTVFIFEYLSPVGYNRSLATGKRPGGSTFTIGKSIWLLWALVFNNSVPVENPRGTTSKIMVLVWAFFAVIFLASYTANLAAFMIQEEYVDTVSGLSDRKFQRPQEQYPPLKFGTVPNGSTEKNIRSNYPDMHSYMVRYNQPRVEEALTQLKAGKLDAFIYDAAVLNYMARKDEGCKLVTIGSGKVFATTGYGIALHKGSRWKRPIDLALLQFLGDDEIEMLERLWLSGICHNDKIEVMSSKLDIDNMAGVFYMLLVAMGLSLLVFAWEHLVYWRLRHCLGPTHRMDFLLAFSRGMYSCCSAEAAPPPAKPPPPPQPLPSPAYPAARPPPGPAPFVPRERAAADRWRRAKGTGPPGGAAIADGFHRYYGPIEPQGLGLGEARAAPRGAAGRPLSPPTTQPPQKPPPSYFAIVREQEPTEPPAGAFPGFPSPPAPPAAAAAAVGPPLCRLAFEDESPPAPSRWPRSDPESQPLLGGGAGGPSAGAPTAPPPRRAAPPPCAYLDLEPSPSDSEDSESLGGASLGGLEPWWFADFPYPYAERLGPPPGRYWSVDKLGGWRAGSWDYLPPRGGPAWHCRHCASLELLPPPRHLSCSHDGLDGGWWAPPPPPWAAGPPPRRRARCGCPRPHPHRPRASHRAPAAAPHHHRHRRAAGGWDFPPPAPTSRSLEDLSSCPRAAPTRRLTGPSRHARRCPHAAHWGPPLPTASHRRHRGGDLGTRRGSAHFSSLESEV
Mu-type opioid receptor, sequence (P79350 whole entry): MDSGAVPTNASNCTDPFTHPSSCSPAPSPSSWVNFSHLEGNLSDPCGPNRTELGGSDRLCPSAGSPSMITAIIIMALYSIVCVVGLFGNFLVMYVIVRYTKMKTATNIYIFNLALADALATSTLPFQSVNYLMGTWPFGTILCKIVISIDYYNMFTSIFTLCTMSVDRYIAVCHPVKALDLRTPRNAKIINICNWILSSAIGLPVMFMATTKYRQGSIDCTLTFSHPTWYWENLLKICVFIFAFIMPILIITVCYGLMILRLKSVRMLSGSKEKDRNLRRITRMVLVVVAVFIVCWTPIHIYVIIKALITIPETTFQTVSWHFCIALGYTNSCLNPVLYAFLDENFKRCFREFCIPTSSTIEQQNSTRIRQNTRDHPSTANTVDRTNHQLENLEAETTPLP
Neuronal acetylcholine receptor subunit alpha-4/beta-2, sequence (P43681 whole entry): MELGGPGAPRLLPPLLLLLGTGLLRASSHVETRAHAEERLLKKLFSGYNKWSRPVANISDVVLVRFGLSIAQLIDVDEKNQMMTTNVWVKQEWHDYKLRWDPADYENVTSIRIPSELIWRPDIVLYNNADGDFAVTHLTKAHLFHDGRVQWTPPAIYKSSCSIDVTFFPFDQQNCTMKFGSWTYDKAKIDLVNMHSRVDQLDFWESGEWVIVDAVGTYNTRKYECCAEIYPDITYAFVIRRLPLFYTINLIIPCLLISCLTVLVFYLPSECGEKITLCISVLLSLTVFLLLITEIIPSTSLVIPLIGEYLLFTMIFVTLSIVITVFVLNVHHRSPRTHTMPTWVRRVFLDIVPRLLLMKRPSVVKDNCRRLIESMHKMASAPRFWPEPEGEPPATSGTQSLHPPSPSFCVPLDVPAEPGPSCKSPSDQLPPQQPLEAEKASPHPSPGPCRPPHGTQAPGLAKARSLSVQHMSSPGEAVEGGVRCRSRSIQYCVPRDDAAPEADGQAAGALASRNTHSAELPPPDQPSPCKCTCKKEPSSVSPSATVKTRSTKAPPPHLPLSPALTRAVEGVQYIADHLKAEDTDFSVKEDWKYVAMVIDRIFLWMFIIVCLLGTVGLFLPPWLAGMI
Neuronal acetylcholine receptor subunit alpha-4/beta-2, sequence (P17787 whole entry): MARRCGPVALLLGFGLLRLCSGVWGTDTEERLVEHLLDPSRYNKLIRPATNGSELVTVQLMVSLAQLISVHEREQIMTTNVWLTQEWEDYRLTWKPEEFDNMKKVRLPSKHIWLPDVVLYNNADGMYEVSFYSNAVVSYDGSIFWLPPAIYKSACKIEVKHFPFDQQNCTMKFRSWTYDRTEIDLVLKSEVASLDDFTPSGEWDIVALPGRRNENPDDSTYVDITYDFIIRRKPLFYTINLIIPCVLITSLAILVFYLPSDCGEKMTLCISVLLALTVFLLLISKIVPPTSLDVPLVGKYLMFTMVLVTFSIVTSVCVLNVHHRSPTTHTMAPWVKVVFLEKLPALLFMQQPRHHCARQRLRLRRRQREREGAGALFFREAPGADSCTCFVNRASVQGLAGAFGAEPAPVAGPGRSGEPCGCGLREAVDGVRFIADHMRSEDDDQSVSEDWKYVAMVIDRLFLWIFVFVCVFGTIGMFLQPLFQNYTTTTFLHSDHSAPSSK
Neuronal acetylcholine receptor subunit alpha-4/beta-4, sequence (P43681 whole entry): as the sequence (P43681 whole entry) above
Neuronal acetylcholine receptor subunit alpha-4/beta-4, sequence (P30926 whole entry): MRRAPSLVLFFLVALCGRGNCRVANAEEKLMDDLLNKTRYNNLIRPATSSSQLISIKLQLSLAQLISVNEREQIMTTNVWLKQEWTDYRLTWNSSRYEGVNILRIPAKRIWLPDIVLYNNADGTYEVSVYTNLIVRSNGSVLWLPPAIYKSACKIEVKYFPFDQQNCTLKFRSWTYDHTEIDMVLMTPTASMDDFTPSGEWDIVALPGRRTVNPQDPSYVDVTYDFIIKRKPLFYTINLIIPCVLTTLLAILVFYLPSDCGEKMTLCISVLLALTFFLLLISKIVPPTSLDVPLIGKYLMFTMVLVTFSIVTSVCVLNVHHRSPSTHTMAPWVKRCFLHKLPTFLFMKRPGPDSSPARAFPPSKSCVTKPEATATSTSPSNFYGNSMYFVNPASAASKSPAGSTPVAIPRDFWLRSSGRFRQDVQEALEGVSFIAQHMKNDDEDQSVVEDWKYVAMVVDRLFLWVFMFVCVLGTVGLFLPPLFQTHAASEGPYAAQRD
Muscarinic acetylcholine receptor, sequence (F1N5C5 whole entry): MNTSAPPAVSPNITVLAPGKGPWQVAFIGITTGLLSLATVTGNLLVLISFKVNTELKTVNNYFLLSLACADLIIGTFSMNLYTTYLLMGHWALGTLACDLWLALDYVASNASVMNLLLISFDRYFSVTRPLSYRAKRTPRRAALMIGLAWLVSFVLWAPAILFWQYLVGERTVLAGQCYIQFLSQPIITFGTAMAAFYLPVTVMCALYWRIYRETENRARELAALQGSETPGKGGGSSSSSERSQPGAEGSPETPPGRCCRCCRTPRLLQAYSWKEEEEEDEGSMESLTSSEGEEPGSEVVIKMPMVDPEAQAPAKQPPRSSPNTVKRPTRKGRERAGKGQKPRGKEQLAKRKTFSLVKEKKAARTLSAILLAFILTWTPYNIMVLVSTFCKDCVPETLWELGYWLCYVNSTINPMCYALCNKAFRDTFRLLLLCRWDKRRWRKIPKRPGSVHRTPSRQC
Muscarinic acetylcholine receptor M2 (Rattus norvegicus, UniProt P10980), sequence (P10980 whole entry): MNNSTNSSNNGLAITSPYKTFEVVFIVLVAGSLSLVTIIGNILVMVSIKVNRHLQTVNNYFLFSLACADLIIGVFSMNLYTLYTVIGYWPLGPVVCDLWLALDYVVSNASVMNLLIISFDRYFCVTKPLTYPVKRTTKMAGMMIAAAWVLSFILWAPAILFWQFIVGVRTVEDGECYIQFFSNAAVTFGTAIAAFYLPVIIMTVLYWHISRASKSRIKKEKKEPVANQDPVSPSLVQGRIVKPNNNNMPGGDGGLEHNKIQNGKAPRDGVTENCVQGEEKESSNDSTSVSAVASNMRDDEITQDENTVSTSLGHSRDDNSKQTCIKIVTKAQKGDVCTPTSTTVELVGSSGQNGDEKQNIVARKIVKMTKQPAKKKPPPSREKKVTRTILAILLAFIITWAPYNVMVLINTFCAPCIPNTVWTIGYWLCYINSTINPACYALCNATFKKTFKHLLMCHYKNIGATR
Sigma non-opioid intracellular receptor 1 (UniProt Q58DH7), sequence (Q58DH7 whole entry): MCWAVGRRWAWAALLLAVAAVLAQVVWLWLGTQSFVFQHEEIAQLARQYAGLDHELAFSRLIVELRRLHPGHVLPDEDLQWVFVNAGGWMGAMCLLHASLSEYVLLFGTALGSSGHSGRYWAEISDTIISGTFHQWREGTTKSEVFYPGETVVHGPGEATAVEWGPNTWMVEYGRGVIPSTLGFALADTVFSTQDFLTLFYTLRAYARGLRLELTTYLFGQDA
Gamma-aminobutyric acid receptor subunit alpha-1, sequence (P08219 whole entry): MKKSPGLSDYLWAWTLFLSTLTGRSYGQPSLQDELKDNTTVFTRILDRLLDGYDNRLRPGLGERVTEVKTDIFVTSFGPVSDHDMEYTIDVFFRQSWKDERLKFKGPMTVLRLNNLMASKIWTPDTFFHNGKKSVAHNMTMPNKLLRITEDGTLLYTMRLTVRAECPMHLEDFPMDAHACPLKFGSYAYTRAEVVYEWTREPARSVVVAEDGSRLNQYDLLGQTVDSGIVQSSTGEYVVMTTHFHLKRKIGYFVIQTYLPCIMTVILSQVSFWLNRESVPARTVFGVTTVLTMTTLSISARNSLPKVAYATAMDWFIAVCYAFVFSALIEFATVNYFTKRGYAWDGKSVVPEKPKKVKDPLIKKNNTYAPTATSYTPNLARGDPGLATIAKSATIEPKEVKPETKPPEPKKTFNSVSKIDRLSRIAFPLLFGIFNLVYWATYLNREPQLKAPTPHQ

Compound: CC[C@H]1C[C@@H]2C[C@H]3c4[nH]c5ccc(OC)cc5c4CCN(C2)[C@@H]13
- Ki [1]: > 10 µM
- Ki [2]: > 100 µM
- Ki (D(3) dopamine receptor): 70 µM
- IC50 (D(4) dopamine receptor): > 100 µM
- Ki [3]: > 100 µM
- Ki [4]: 9.31 µM
- Ki [5]: 2.5 µM
- Ki [6]: 31.6 µM
- IC50 [7]: 7.6 µM
- Ki [8]: 31 µM
- IC50 [9]: 5.9 µM
- Ki (Mu-type opioid receptor): 11 µM and 2 µM
- Ki [10]: 1.19 µM
- Ki [11]: 1.98 µM
- Ki [12]: 2.22 µM
- Ki [13]: 2.46 µM
- Ki [14]: 3.31 µM
- Ki [15]: 3.9 µM
- IC50 [16]: 3.2 µM
- Ki [17]: > 100 µM

Compound: CAS_82830-44-2::(2R)-1-(4-iodo-2,5-dimethoxyphenyl)propan-2-amine::DOI,(-)::US20250270173, Compound DOI
- Ki [18]: 0.34 µM
- Ki [19]: > 10 µM
- Ki [20]: > 10 µM
- Ki [21]: > 10 µM
